Experimental findings from paper PMC9004346, “Development of small cyclic peptides targeting the CK2α/β interface” (Chemical Communications (Cambridge, England), 2022) are described below.

Substitutions are numbered along the chain they refer to. *1 amine or outer side, *2 acyl side, *3 side chain or, on linkers, in order; H or OH if unused. Where a SMILES comes first, the peptide text is derived from it. Bridges are numbered along the chain shown (N, C = ends). Side-chain parts run from the residue outwards. [ ]: non-standard residue; d: D form. The star is where a group is joined. Trp(2-yl) = O=C([C@H](Cc1c([*:3])[nH]c2ccccc12)N[*:1])[*:2]; X1 = CN(CC(=O)O)c1nc(CC[*:1])cc(CC[*:2])n1; Dap(N3) = [N-]=[N+]=NC[C@H](N)C(=O)O; mXylylene = c1cc(C[*:1])cc(C[*:2])c1; CH2COCH2 = O=C(C[*:1])C[*:2]; Lauroyl = CCCCCCCCCCCC(=O)*; hCys = N[C@@H](CCS)C(=O)O; AEEA = NCCOCCOCC(=O)O A value given as a limit tells only on which side of the number the result lay.

For the first data set, the target named is T1, CK2α (Homo sapiens, UniProt P68400, K74A/K75A/K76A/R21S).
T1 construct: CK2α_KA (residues 2-329) contained four mutations; made in house
T1 sequence (P68400 2-329 R21S/K74A/K75A/K76A): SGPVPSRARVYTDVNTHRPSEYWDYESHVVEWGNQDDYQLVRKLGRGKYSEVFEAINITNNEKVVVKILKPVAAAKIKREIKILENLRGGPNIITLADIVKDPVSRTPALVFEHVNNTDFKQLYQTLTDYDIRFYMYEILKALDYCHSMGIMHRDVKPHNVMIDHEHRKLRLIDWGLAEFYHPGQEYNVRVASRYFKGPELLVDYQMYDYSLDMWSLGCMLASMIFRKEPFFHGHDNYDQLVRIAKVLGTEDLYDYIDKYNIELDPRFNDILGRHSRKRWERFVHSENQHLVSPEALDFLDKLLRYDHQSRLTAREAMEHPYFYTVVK
In words: Isothermal titration calorimetry (ITC) binding to CK2α. The conditions noted are these: 25 °C, CK2α_KA. The source says: Ligand efficiency (LE) is a commonly used statistic to evaluate and compare the effectiveness of drug candidates.17 Mathematically, it is related to the IC50 of the molecule, as well as the number of heavy atoms (non-hydrogen) it contains, as detailed in Equation 1. 18
Equation 1 Mathematical expression for the ligand efficiencies of compounds.18 pIC50 = -log10(IC50) LE = Number of non ‒ H atoms […]
greatest activity with the fewest heavy atoms.
(§1) 1.5 Biophysical experiments
(§2) 1.5.1 Protein expression and purification
Three constructs of CK2α were used in this study. For FP assays, CK2α_WT was used (residues 2-329).
For ITC CK2α_KA construct was used whilst CK2α_FP10 was used for crystallisation purposes. CK2α_KA (residues 2-329) contained four mutations designed to aid crystallisation and solubility by reducing the overall charge of the protein; R21S, K74A, K75A and K76A. CK2α_FP 10 contained one mutation (R21S) and an N-terminal extension […] aimed at mimicking a substrate peptide for CK2α. These constructs were cloned, expressed, and purified as previously described.19 1.5.2 Fluorescence polarisation
(§3) IC50’s were determined using a PHERAstar FS plate reader (BMG labtech). The fluorescein probe was measured using 485 nm excitation and 530 nm emission. The fluorescein probe was covalently linked to the N-terminus of the linear CK2β-based peptide RLYGFKIHPMAYQLQ. IC50’s were measured using 500, 167, 16.7, 8.33 and 0 μM of the test peptide at a constant concentration of DMSO. P7C8, P8C9, P+L and P+ were tested at concentrations of 50.0, 16.7, 1.67, 0.833 and 0 μM due to their higher potencies. The experiments were performed in a Corning 384-well plate with final concentrations of 571 nM CK2α_WT (residues 2-329), 7.4 μM fluorescent peptide (fluorescein probe was covalently linked to the N-terminus of the linear CK2β-based peptide RLYGFKIHPMAYQLQ), 200 mM NaCl, 40mM TRIS, 20 mM MgCl2 and pH 7.5. The plates were read after a 45 min incubation period.
1.5.3 Isothermal titration calorimetry
All ITC experiments were performed at 25 °C using a MicroCal ITC-200 (GE Healthcare). […]
In the case of `CCCCCCCCCCCC(=O)NCCOCCOCC(=O)N[C@H]1CCSc2[nH]c3ccccc3c2C[C@@H](C(N)=O)NC(=O)[C@H](CCCCN)NC(=O)[C@H](Cc2ccccc2)NC(=O)CNC(=O)[C@H](Cc2ccc(O)cc2)NC(=O)[C@H](CC(C)C)NC(=O)[C@H](CCCNC(=N)N)NC1=O` [FA-P8C9] ({Lauroyl-AEEA}-[hCys]RLYGFK[Trp(2-yl)]-NH2; thioether 1-8), the Kd was found to be 1.3 µM. The same measure, in the same setting: with `CC(=O)NCCOCCOCC(=O)NCCCC[C@@H]1NC(=O)[C@H](Cc2ccccc2)NC(=O)CNC(=O)[C@H](Cc2ccc(O)cc2)NC(=O)[C@H](CC(C)C)NC(=O)[C@H](CCCNC(=N)N)NC(=O)[C@@H](NC(C)=O)CCSc2[nH]c3ccccc3c2C[C@@H](C(N)=O)NC1=O` [P8C9[PEG]] (Ac-[hCys]RLYGFK([AEEA-Ac])[Trp(2-yl)]-NH2; thioether 1-8 (inferred)) the figure was 1.6 µM.

Test system in the next data set: not listed separately
In words: Solubility observations during FP and ITC testing. The format is physicochemical. Conditions: observed during FP or ITC testing.
For the compound `CCCCCCCCCCCC(=O)NCCOCCOCC(=O)NCCCC[C@@H]1NC(=O)[C@H](Cc2ccccc2)NC(=O)CNC(=O)[C@H](Cc2ccc(O)cc2)NC(=O)[C@H](CC(C)C)NC(=O)[C@H](CCCNC(=N)N)NC(=O)[C@@H](NC(C)=O)CCSc2[nH]c3ccccc3c2C[C@@H](C(N)=O)NC1=O` [P8C9[FA]] (Ac-[hCys]RLYGFK([AEEA-Lauroyl])[Trp(2-yl)]-NH2; thioether 1-8), the “Solubility (observation in words)” value is recorded as “Precipitation”.

A further data set has as its target T2, CK2α (Homo sapiens, UniProt P68400).
T2 construct: 571 nM CK2α_WT (residues 2-329); made in house
T2 sequence (P68400 2-329): T1 sequence (P68400 2-329 R21S/K74A/K75A/K76A) with S20R, A73K, A74K, A75K
In words: Fluorescence polarisation (FP) assay: displacement of a CK2β-like fluorescent probe from CK2α. The conditions noted are these: CK2α_WT (residues 2-329), fluorescein-labelled CK2β-based peptide probe, ±SEM. It counts as binding.
Excerpt: To assess the ability of the synthesised linear peptides to displace a CK2β-like fluorescent probe from CK2α, a fluorescence polarisation (FP) assay was used (Table 1, ESI 1.3.2 and Fig. S2, ESI ^†). […]
as §1, §2
Three constructs of CK2α were used in this study. For FP assays, CK2α_WT was used (residues 2-329). […]
These constructs were cloned, expressed, and purified as previously described.19 1.5.2 Fluorescence polarisation
as §3, with “period. […]” for “period.”
Take `CC(=O)NCC(=O)N[C@H]1Cn2cc(nn2)-c2cc(C(=O)O)cc(c2)-c2cn(nn2)C[C@@H](C(=O)NCC(=O)NCC(N)=O)NC(=O)[C@H](Cc2c[nH]cn2)NC(=O)[C@H](Cc2c[nH]c3ccccc23)NC(=O)[C@H](CCCCN)NC(=O)[C@H](Cc2ccccc2)NC(=O)CNC(=O)[C@H](Cc2ccc(O)cc2)NC(=O)[C@H](CC(C)C)NC(=O)[C@H](CCCNC(=N)N)NC1=O` [P+, GXC1RLYGFKWHXC1GG, reference compound]: the half-maximal inhibitory concentration (IC50) is 8.7 ± 4.2 µM. Still for that read-out and setting: in the case of `CC(=O)NCC(=O)N[C@@H](CN=[N+]=[N-])C(=O)N[C@@H](CCCNC(=N)N)C(=O)N[C@@H](CC(C)C)C(=O)N[C@@H](Cc1ccc(O)cc1)C(=O)NCC(=O)N[C@@H](Cc1ccccc1)C(=O)N[C@@H](CCCCN)C(=O)N[C@@H](Cc1c[nH]c2ccccc12)C(=O)N[C@@H](Cc1c[nH]cn1)C(=O)N[C@@H](CN=[N+]=[N-])C(=O)NCC(=O)NCC(N)=O` [P+L, reference compound] (Ac-G[Dap(N3)]RLYGFKWH[Dap(N3)]GG-NH2) it was 11.7 µM; in that of `CC(=O)N[C@H]1CSCC(=O)CSC[C@@H](C(N)=O)NC(=O)[C@H](CCCCN)NC(=O)[C@H](Cc2ccccc2)NC(=O)CNC(=O)[C@H](Cc2ccc(O)cc2)NC(=O)[C@H](CC(C)C)NC(=O)[C@H](CCCNC(=N)N)NC1=O` [Peptide P5C4] (Ac-CRLYGFKC-NH2; linker 1-8 via CH2COCH2), 54.6 ± 11.2 µM. Same read-out and setting: in the case of `CC(=O)N[C@H]1CSCc2cccc(c2)CSC[C@@H](C(N)=O)NC(=O)[C@H](CCCCN)NC(=O)[C@H](Cc2ccccc2)NC(=O)CNC(=O)[C@H](Cc2ccc(O)cc2)NC(=O)[C@H](CC(C)C)NC(=O)[C@H](CCCNC(=N)N)NC1=O` [Peptide P5C5] (Ac-CRLYGFKC-NH2; linker 1-8 via mXylylene) it was 28.9 ± 1.9 µM. `CC(=O)N[C@H]1CSCCc2cc(nc(N(C)CC(=O)O)n2)CCSC[C@@H](C(N)=O)NC(=O)[C@H](CCCCN)NC(=O)[C@H](Cc2ccccc2)NC(=O)CNC(=O)[C@H](Cc2ccc(O)cc2)NC(=O)[C@H](CC(C)C)NC(=O)[C@H](CCCNC(=N)N)NC1=O` [Peptide P5C7] (Ac-CRLYGFKC-NH2; linker 1-8 via X1) yielded an IC50 of 40 ± 4.7 µM.

Consider `CC(=O)N[C@H]1CSc2[nH]c3ccccc3c2C[C@@H](C(N)=O)NC(=O)[C@H](CCCCN)NC(=O)[C@H](Cc2ccccc2)NC(=O)CNC(=O)[C@H](Cc2ccc(O)cc2)NC(=O)[C@H](CC(C)C)NC(=O)[C@H](CCCNC(=N)N)NC1=O` [Peptide P7C8, CC8RLYGFKWC8] (Ac-CRLYGFK[Trp(2-yl)]-NH2; thioether 1-8), for which the IC50 stood at 15.6 ± 5.1 µM. On the same count and under the same terms, in the case of Ac-LYGFKW-NH2 [Peptide P2, LYGFKW] it was 137 ± 25.8 µM. Take Ac-RLYGFK-NH2 [Peptide P1, RLYGFK]: the half-maximal inhibitory concentration (IC50) was greater than 500 µM. The same measure, in the same setting: with Ac-RLYGFKW-NH2 [Peptide P3, RLYGFKW] the figure was 22.5 ± 2.4 µM.

In turn, Ac-RLYGFKWH-NH2 [Peptide P4, RLYGFKWH] came in with an IC50 of 16.7 ± 2.3 µM.

Test system in the next data set: not listed separately
In words: MTT cell viability assay in HeLa cells. It counts as cell-based. The conditions noted are these: human; HeLa cells, 48 h, 50 μM compound; ±standard deviation; read-out: Cell viability (%) 50 μM compound. Here is the method: HeLa cells were maintained in 5% CO2 in DMEM supplemented with 10% FBS, 2 mM L-glutamine, 100 U/mL penicillin and […] streptomycin, in an atmosphere containing 5% CO2.
Cells were regularly passed and used for experiments within one month after thawing (10-15 […]
1.6.2 Cell viability assay
Cell viability was assayed by 3-(4,5-dimethylthiazol-2-yl)-2,5-diphenyltetrazolium bromide (MTT) colorimetric assay. HeLa cells were plated on 96-well plates (20,000 cells per well in 100 μL). After 24 h, cells were treated with different concentrations of test compounds or vehicle alone (DMSO). One hour before the end of the incubations, 10 μL of MTT solution (5 mg/mL in PBS) were added to each well. Formazan crystals (proportional to the number of viable cells) were then dissolved by the addition of 20 μL/well of a pH 4.7 solution containing 20% (w:v) SDS, 50% (v:v) N,N-dimethylformamide, 2% (v:v) acetic acid, and 25 mM HCl, and quantified by recording the absorbance at 570 nm using an Infinite M200 PRO plate reader (TECAN, Life Sciences). […]
With `O=C(O)c1ccc2c(c1)nc(Nc1cccc(Cl)c1)c1ccncc12` [CX-4945, reference compound], the viability at 48 h, 50 µM was determined as 29 ± 1%.

The data set is the same for the next values; noted with them: human; HeLa cells, 48 h, 100 μM compound; ±standard deviation; read-out: Cell viability (%) 100 μM compound.
As to `O=C(O)c1ccc2c(c1)nc(Nc1cccc(Cl)c1)c1ccncc12` [CX-4945, reference compound], the viability at 48 h, 100 µM came to 21 ± 1%.
